The record followed here is patent publication EP4553080A1, “NUCLEOSIDE DERIVATIVES AS ANTIVIRAL AGENTS AGAINST CORONAVIRUSES” (Ustav Organicke Chemie a Biochemie AV CR, v.v.i., priority 2023, dated 2025).

As usually defined, the IC50 is the concentration that inhibits the measured activity by half.

This assay addresses nsp14 methyltransferase from SARS-CoV-2 (Severe acute respiratory syndrome coronavirus 2, UniProt P0DTD1). Nature of the assay: Nsp14 MTase activity inhibition in vitro (EchoMS assay). Format: biochemical. To be noted: recombinant nsp14 protein expressed in E. coli; dose-response curve.
For `Cc1noc(-c2ccccc2)c1CSC[C@H]1O[C@@H](n2cc(C3CCCC3)c3c(N)ncnc32)[C@H](O)[C@@H]1O` [Compound 133b, (2R,3R,4S,5S)-2-(4-Amino-5-cyclopentyl-7H-pyrrolo[2,3-d]pyrimidin-7-yl)-5-((((3-methyl-5-phenylisoxazol-4-yl)methyl)thio)methyl)tetrahydrofuran-3,4-diol], the IC50 fell in the range of 100 to 500 nM.
With `Cc1noc(-c2ccccc2)c1CSC[C@H]1O[C@@H](n2nc(C#Cc3cncnc3)c3c(N)ncnc32)[C@H](O)[C@@H]1O` [Compound 218b], the IC50 was 30 to 100 nM.
Turning to `Cc1nsc(-c2ccccc2)c1CSC[C@H]1O[C@@H](n2ccc3c(N)ncnc32)[C@H](O)[C@@H]1O` [Compound 54c, (2R,3R,4S,5S)-2-(4-Amino-7H-pyrrolo[2,3-d]pyrimidin-7-yl)-5-((((3-methyl-5-phenylisothiazol-4-yl)methyl)thio)methyl)tetrahydrofuran-3,4-diol], the IC50 lay in the range of 30 to 100 nM.
As for `Cc1noc(-c2ccccc2)c1CSC[C@H]1O[C@@H](n2nc(-c3cccc(C#N)c3)c3c(N)ncnc32)[C@H](O)[C@@H]1O` [Compound 220b, 3-(4-Amino-1-((2R,3R,4S,5S)-3,4-dihydroxy-5-((((3-methyl-5-phenylisoxazol-4-yl)methyl)thio)methyl)tetrahydrofuran-2-yl)-1H-pyrazolo[3,4-d]pyrimidin-3-yl)benzonitrile], the IC50 is 100 to 500 nM.
To `Cc1cncc(-c2ccccc2)c1CSC[C@H]1O[C@@H](n2ccc3c(N)ncnc32)[C@H](O)[C@@H]1O` [Compound 57c, (2R,3R,4S,5S)-2-(4-Amino-7H-pyrrolo[2,3-d]pyrimidin-7-yl)-5-((((3-methyl-5-phenylpyridin-4-yl)methyl)thio)methyl)tetrahydrofuran-3,4-diol] belongs 30 to 100 nM; to `Cn1cnc(-c2ccccc2)c1CSC[C@H]1O[C@@H](n2cc(I)c3c(N)ncnc32)[C@H](O)[C@@H]1O` [Compound 244, (2R,3R,4S,5S)-2-(4-Amino-5-iodo-7H-pyrrolo[2,3-d]pyrimidin-7-yl)-5-((((1-methyl-4-phenyl-1H-imidazol-5-yl)methyl)thio)methyl)tetrahydrofuran-3,4-diol], 10 to 30 nM.
`Cc1noc(-c2ccccc2)c1CSC[C@H]1O[C@@H](n2ncc3c(N)ncnc32)[C@H](O)[C@@H]1O` [Compound 213, (2R,3R,4S,5S)-2-(4-Amino-1H-pyrazolo[3,4-d]pyrimidin-1-yl)-5-((((3-methyl-5-phenylisoxazol-4-yl)methyl)thio)methyl)tetrahydrofuran-3,4-diol]: the IC50 lay in the range of 30 to 100 nM.
Take `Cc1ccc(-c2onc(C)c2CSC[C@H]2O[C@@H](n3cc(C#Cc4cncnc4)c4c(N)ncnc43)[C@H](O)[C@@H]2O)cc1C` [Compound 242c, (2R,3R,4S,5S)-2-(4-Amino-5-(pyrimidin-5-ylethynyl)-7H-pyrrolo[2,3-d]pyrimidin-7-yl)-5-((((5-(3,4-dimethylphenyl)-3-methylisoxazol-4-yl)methyl)thio)methyl)tetrahydrofuran-3,4-diol]: the IC50 fell in the range of 10 to 30 nM.
Under `Cc1noc(-c2ccccc2)c1CSC[C@H]1O[C@@H](n2cc(/C=C/c3ccccc3)c3c(N)ncnc32)[C@H](O)[C@@H]1O` [Compound 181b, (2R,3R,4S,5S)-2-(4-Amino-5-((E)-styryl)-7H-pyrrolo[2,3-d]pyrimidin-7-yl)-5-((((3-methyl-5-phenylisoxazol-4-yl)methyl)thio)methyl)tetrahydrofuran-3,4-diol] stands 100 to 500 nM; under `Cc1noc(-c2ccc([N+](=O)[O-])cc2)c1CSC[C@H]1O[C@@H](n2ccc3c(N)ncnc32)[C@H](O)[C@@H]1O` [Compound 93c, (2R,3R,4S,5S)-2-(4-Amino-7H-pyrrolo[2,3-d]pyrimidin-7-yl)-5-((((3-methyl-5-(4-nitrophenyl)isoxazol-4-yl)methyl)thio)methyl)tetrahydrofuran-3,4-diol], 100 to 500 nM.
